These results are taken from article PMC9959918 (2023).

Experiment [1] relates to CPG-c-myc (DNA, G4) TGGGGAGGGTGGGGAGGGTGGGGAAGGTGGGGA
Description: G4-CPG affinity assay, UV. The note with it: 50 mM KCl, 10% DMSO, 10% ethanol, 60 μM compound, error ±2%.

Experiment [2] concerns CPG-tel26 (DNA, G4) TTAGGGTTAGGGTTAGGGTTAGGGTT
Description: G4-CPG affinity assay, UV. The note with it: 50 mM KCl, 10% DMSO, 10% ethanol, 60 μM compound, error ±2%.

In experiment [3] the test system is CPG-ds27 (DNA, hairpin) CGCGAATTCGCGTTTCGCGAATTCGCG
In words: G4-CPG affinity assay, UV. The note with it: 50 mM KCl, 10% DMSO, 10% ethanol, 60 μM compound, error ±2%.

Experiment [4] has as its system ds12 (Dickerson dodecamer) (DNA, duplex) CGCGAATTCGCG
Description: fluorescence titration, 2 μM ligand, equivalent-sites fit. The following applies: 5 mM KCl, 5 mM KH2PO4; 5% DMSO, pH 7, 20 °C.

The test system of experiment [5] is tel26 (DNA, G4) TTAGGGTTAGGGTTAGGGTTAGGGTT
The experiment is described as above. The note with it: 5 mM KCl, 5 mM KH2PO4; 5% DMSO, pH 7, 20 °C.

For experiment [6], the system named is ds12 (Dickerson dodecamer) (DNA, duplex) CGCGAATTCGCG
In words: CD melting, 253 nm. The following applies: 5 mM KCl, 5 mM KH2PO4; 5% DMSO, pH 7; 2 μM DNA, 20 μM compound (10 equiv.); Tm ± 1.

In experiment [7] the test system is tel26 (DNA, G4) TTAGGGTTAGGGTTAGGGTTAGGGTT
In words: CD melting, 290 nm. The note with it: 5 mM KCl, 5 mM KH2PO4; 5% DMSO, pH 7; 2 μM DNA, 20 μM compound (10 equiv.); Tm ± 1.

Experiment [8] deals with Pu22T14T23 (Pu22) (DNA, G4) TGAGGGTGGGTAGGGTGGGTAA
Description: fluorescence titration, 2 μM ligand, equivalent-sites fit. The following applies: 5 mM KCl, 5 mM KH2PO4; 5% DMSO, pH 7, 20 °C.

The test system is the same in experiment [9]. Description: CD melting, 265 nm. The note with it: 5 mM KCl, 5 mM KH2PO4; 5% DMSO, pH 7; 2 μM DNA, 20 μM compound (10 equiv.); Tm ± 1.

As for `CC1(C)C=Cc2c(ccc3c2O[C@@H]2COc4cc5c(cc4[C@@H]2C3=O)OCO5)O1`, the “Bound Ligand” value in [1] (nude CPG 8%), in experiment [2] (nude CPG 8%) and in experiment [3] (nude CPG 8%) was 8% throughout.

On to `COc1cc2c(cc1OC)-c1c(OC)c(OC)cc3c1[C@H](C2)N(C)CC3`, for which the “Bound Ligand” value is 1% in [1] (nude CPG 0%), 2% in experiment [2] (nude CPG 0%) and 0% in [3] (nude CPG 0%).

In the case of `COc1cc2c(cc1OC)-c1c3c(cc4c1[C@H](C2)N(C)CC4)OCO3`, the values for the Kb result in [4], in experiment [5] and in experiment [8] were “(3.2 ± 0.4) × 10^5 M^−1”, “(2.8 ± 1.2) × 10^6 M^−1” and “(0.8 ± 0.5) × 10^6 M^−1”, respectively. The “Bound Ligand” value worked out at 47% in experiment [1] (nude CPG 0%), 67% in experiment [2] (nude CPG 0%) and 30% in experiment [3] (nude CPG 0%). Further, the results for the ΔTm entry in [6], in experiment [7] and in experiment [9] were “+1 °C”, “+3 °C” and “+5 °C”, respectively.

For the compound `COc1cc2c(cc1OC)[C@@H]1C(=O)c3ccc4c(c3O[C@@H]1CO2)C=CC(C)(C)O4`, the “Bound Ligand” value in [1] (nude CPG 0%), in experiment [2] (nude CPG 0%) and in [3] (nude CPG 0%) was 0% each time.

`COc1ccc2c(c1OC)CN1CCc3cc4c(cc3[C@@H]1C2)OCO4`: the “Bound Ligand” value in [3] (nude CPG 21%) was 4%.
